The values below come from PMC8538957 (Pharmaceutics, 2021).

The test concerns the target T1, UGT2B7 (UDP-glycosyltransferase) (Homo sapiens, UniProt P16662).
T1 construct: human liver microsomes encapsulated in hydrogel (HLM-Gel)
T1 sequence (P16662 24-529): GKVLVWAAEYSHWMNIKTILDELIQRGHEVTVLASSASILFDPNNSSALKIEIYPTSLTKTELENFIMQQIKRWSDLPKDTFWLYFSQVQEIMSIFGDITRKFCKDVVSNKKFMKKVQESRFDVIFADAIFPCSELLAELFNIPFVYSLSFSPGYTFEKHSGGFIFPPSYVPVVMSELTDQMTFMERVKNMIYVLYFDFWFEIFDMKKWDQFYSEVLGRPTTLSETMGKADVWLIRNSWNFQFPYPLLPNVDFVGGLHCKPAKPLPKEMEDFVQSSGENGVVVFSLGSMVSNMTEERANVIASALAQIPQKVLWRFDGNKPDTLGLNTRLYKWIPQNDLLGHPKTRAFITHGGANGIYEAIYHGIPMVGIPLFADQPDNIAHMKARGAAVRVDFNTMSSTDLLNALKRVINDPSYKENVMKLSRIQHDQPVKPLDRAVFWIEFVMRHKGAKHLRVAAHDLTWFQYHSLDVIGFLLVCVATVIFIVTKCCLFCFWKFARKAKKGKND
The test can be described thus: inhibition of AZT glucuronidation in human liver microsomes in the Bio-PK dynamic system, HPLC, Ki fitted by MATLAB model. The format is biochemical. Background: Liver microsomes are vesicles of endoplasmic reticulum, rich in cytochrome P450 enzymes.

A word on the Ki: it is the dissociation constant of the complex between target and ligand, obtained from inhibition or displacement. Higher therefore signals weaker binding. On to `OC(Cn1cncn1)(Cn1cncn1)c1ccc(F)cc1F` [FCZ, fluconazole], for which affinity was put at a Ki of 14 µM.
